For one test, the system named is P. aeruginosa biofilm. It counts as cell-based. The conditions noted are these: biofilm. Here is the method: Methods of assessment of anti-biofilm activity—Biofilm formation was initially analyzed using a static abiotic solid surface assay as described elsewhere (de la Fuente-Nunez et al., 2012). […] Planktonic cells were removed, biofilm cells adhering to the side of the tubes were stained with crystal violet, and absorbance at 595 nm was measured using a microtiter plate reader (Bio-Tek Instruments Inc., United States). Some peptides were screened against two Gram negative organisms, P. aeruginosa and K. pneumoniae using a Bioflux apparatus (AutoMate Scientific, Berkeley, Calif.; http://www.autom8.com/bioflux_biofilm.html), which allows for the high-throughput, real-time analysis of biofilms.

Test [1] has as its system LPS-stimulated human peripheral blood mononuclear cells (IL1-β). It counts as cell-based. The settings on record: cells stimulated with 10 ng/ml LPS; for IL1β Production: LPS alone 1313 (HH2 derivatives), 1927 (1018 derivatives), 2455 (1002 and hybrid peptides) pg/ml; for IL1β Production (pg/ml): LPS alone 984 pg/ml, starred values (1002-2013) determined separately, LPS alone 889 pg/ml.

In test [2] the test system is human peripheral blood mononuclear cells (MCP-1). The test can be described thus: SPOT-synthesized derivative screen: production of chemokine MCP-1. It counts as cell-based. The conditions noted are these: No LPS. The gist of the method:
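PBMC from heparinized healthy-donor venous blood, Ficoll-separated, cultured at 0.75 to 1×10^6 cells/ml, 37 °C, 5% CO2, under the treatment regimens. MCP-1 in cell-free supernatants measured by capture ELISA.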

The test system of another test is S. aureus biofilms. The test can be described thus: checkerboard titration biofilm synergy (MBIC, FIC). Format: cell-based. Here is the method:
Peptides and various conventional antibiotics were analyzed by checkerboard titration into microtiter trays using CLSI methods (Wiegand, I., K. Hilpert, and R. E. W. Hancock. 2008. Nature Protocols 3:163-175), bacteria added and, after overnight incubation at 37° C., the residual biofilm assessed by the crystal violet method mentioned in the body of the grant, with an A595 of 0.2 considered as 100% biofilm inhibition. The effects of the peptide in reducing the minimal biofilm inhibitory concentration (MBIC) of the antibiotic and vice versa were assessed using the Fractional Inhibitory Concentration (FIC) method whereby ΣFTC=FICA+FICB=(CA/MICA)+(CB/MICB), where MBICA and MBICB are the MBICs of peptide A and antibiotic B alone, respectively, and CA and CB (expressed in μg/ml) are the MICs of the drugs in combination. This conventional clinical microbiology assay is interpreted as follows

Test [3] concerns methicillin resistant Staphylococcus aureus (MRSA) biofilm. The settings on record: approximate peptide concentration […] (around 3 μg/ml); compared to untreated samples. The gist of the method: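 Static biofilm assay: 1/100 dilutions of overnight cultures grown in BM2 medium (pH 7, glucose, Casamino Acids) or Luria Broth with peptide added at time zero. After 22–46 h, adherent biofilm was stained with crystal violet and read at 595 nm. Some peptides were also tested on K. pneumoniae under flow in a Bioflux system.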

Setting [4] is: Table 12A, 1002-2013 compared to LPS control of 889 pg/ml.
[5] abbreviates: Table 12, human PBMC, peptide at ~18-24 μM.
Where [6] appears, read: Table 12, human PBMC, peptide at ~18-24 μM, background subtracted 139 (HH2 derivatives), 170 (1018 derivatives), 242 (1002 and hybrid peptides) pg/ml.
The mark [7] stands for this setting: Table 12A, background subtracted (21.3 pg/ml).

Read-outs that look alike come from different tables or passages of the source. Marks after values point to notes of the source that are not given here. Ends that are not written are not given here. Peptide text beside a SMILES is read from it.

As for `CC[C@H](C)[C@H](NC(=O)[C@H](CCCNC(=N)N)NC(=O)[C@H](CC(C)C)NC(=O)[C@H](CCC(N)=O)NC(=O)[C@@H](N)C(C)C)C(=O)N[C@@H](CCCNC(=N)N)C(=O)N[C@H](C(=O)N[C@@H](C)C(=O)N[C@H](C(=O)N[C@H](C(=O)N[C@@H](CCCNC(=N)N)C(=O)N[C@@H](C)C(N)=O)[C@@H](C)CC)C(C)C)C(C)C` [HH2] (H-VQLRIRVAVIRA-NH2; N-terminus assumed), the “MBIC50 P. aeruginosa” value with P. aeruginosa biofilm is above 80 µg/mL. Moreover, the entries for the “Fold change in IL1β relative to no peptide LPS stimulated cells” value in test [1] (Table 12) and in test [1] (setting [4]) were 1.00 and 0.53, respectively. Further, the “IL1β Production” value in test [1] (Table 12) turned out to be 1307 pg/mL. The “IL1β Production (pg/ml)” value in test [1] (Table 12A) was 469* pg/ml. Further, the “Fold increase in MCP1 cf. untreated cells” value (from here on “Fold increase”) was 3.6 in test [2] (setting [5]) and 43 in test [2] (Table 12A). For the same compound, the “MCP1” value in test [2] (setting [6]) is 450 pg/mL; in test [2] (setting [7]) it was 896 pg/mL.

Take `CC[C@H](C)[C@H](NC(=O)[C@H](CCCNC(=N)N)NC(=O)[C@H](CC(C)C)NC(=O)[C@H](CCC(N)=O)NC(=O)[C@@H](N)Cc1c[nH]c2ccccc12)C(=O)N[C@@H](CCCNC(=N)N)C(=O)N[C@H](C(=O)N[C@@H](CCCCN)C(=O)N[C@H](C(=O)N[C@H](C(=O)N[C@@H](CCCNC(=N)N)C(=O)N[C@@H](CCCCN)C(N)=O)[C@@H](C)CC)C(C)C)C(C)C` [Peptide 2012] (H-WQLRIRVKVIRK-NH2; N-terminus assumed): the “MBIC50 P. aeruginosa” value in the test with P. aeruginosa biofilm was found to be 20 µg/mL. The “Fold change in IL1β relative to no peptide LPS stimulated cells” value in test [1] (setting [4]) turned out to be 0.43. Besides, the “IL1β Production (pg/ml)” value in test [1] (Table 12A) is reported as 381* pg/ml. Besides, the “Fold increase” value in test [2] (Table 12A) amounted to 227. Moreover, the “MCP1” value in test [2] (setting [7]) stood at 4824 pg/mL.

`CC[C@H](C)[C@H](NC(=O)[C@H](CCCNC(=N)N)NC(=O)[C@H](CC(C)C)NC(=O)[C@H](CCC(N)=O)NC(=O)[C@@H](N)C(C)C)C(=O)N[C@@H](CCCNC(=N)N)C(=O)N[C@H](C(=O)N[C@@H](CCCCN)C(=O)N[C@H](C(=O)N[C@H](C(=O)N[C@@H](CCCNC(=N)N)C(=O)N[C@@H](CCCCN)C(N)=O)[C@@H](C)CC)C(C)C)C(C)C` [Peptide 2011] (H-VQLRIRVKVIRK-NH2; N-terminus assumed): the “MBIC50 P. aeruginosa” value with P. aeruginosa biofilm was found to be 10 µg/mL. In test [1] (setting [4]), the “Fold change in IL1β relative to no peptide LPS stimulated cells” value came to 0.62. Further, the “IL1β Production (pg/ml)” value in test [1] (Table 12A) is 550* pg/ml. Moreover, in test [2] (Table 12A), the “Fold increase” value is listed as 38. Besides, in test [2] (setting [7]), the “MCP1” value is 796 pg/mL.

`CC[C@H](C)[C@H](NC(=O)[C@H](CCCNC(=N)N)NC(=O)[C@H](Cc1c[nH]c2ccccc12)NC(=O)[C@H](CCCNC(=N)N)NC(=O)[C@@H](NC(=O)[C@H](CC(C)C)NC(=O)[C@H](CC(C)C)NC(=O)[C@H](CCCNC(=N)N)NC(=O)[C@H](Cc1c[nH]c2ccccc12)NC(=O)[C@@H](N)CCCCN)[C@@H](C)CC)C(=O)N[C@@H](CCC(N)=O)C(=O)N[C@@H](CCCCN)C(N)=O` [Peptide 2009] (H-KWRLLIRWRIQK-NH2; N-terminus assumed): in the test with P. aeruginosa biofilm, the “MBIC50 P. aeruginosa” value turned out to be 2.5 µg/mL. Also, in test [1] (setting [4]), the “Fold change in IL1β relative to no peptide LPS stimulated cells” value is 0.08. Also, the “IL1β Production (pg/ml)” value in test [1] (Table 12A) is given as 74* pg/ml. In addition, the “Fold increase” value in test [2] (Table 12A) is given as 586. Further, in test [2] (setting [7]), the “MCP1” value is 12475 pg/mL.

For the compound `CN[C@H](CC(C)C)C(=O)N[C@H]1C(=O)N[C@@H](CC(N)=O)C(=O)N[C@H]2C(=O)N[C@H]3C(=O)N[C@H](C(=O)N[C@H](C(=O)O)c4cc(O)cc(O)c4-c4cc3ccc4O)[C@H](O)c3ccc(c(Cl)c3)Oc3cc2cc(c3O[C@@H]2O[C@H](CO)[C@@H](O)[C@H](O)[C@H]2O[C@H]2C[C@](C)(N)[C@H](O)[C@H](C)O2)Oc2ccc(cc2Cl)[C@H]1O` [Vancomycin], the FIC in the test on S. aureus biofilms (antibiotic in combination with peptide DJK6) worked out at 0.4. Further, in the test on S. aureus biofilms (in the presence of peptide DJK6), the “Fold decrease in antibiotic concentration” value is 16.

As to `CC[C@H](C)[C@H](NC(=O)[C@H](CCCNC(=N)N)NC(=O)[C@H](Cc1c[nH]c2ccccc12)NC(=O)[C@@H](NC(=O)[C@@H](NC(=O)[C@H](CC(C)C)NC(=O)[C@H](Cc1c[nH]c2ccccc12)NC(=O)[C@H](CCCNC(=N)N)NC(=O)[C@H](CCC(N)=O)NC(=O)[C@@H](N)C(C)C)[C@@H](C)CC)C(C)C)C(=O)N[C@@H](CCCNC(=N)N)C(=O)N[C@@H](CCCCN)C(N)=O` [Peptide 1002] (H-VQRWLIVWRIRK-NH2; N-terminus assumed), the “MBIC50 P. aeruginosa” value in the test on P. aeruginosa biofilm amounted to 5 µg/mL. Besides, the figures for the “Fold change in IL1β relative to no peptide LPS stimulated cells” value in test [1] (Table 12) and in test [1] (setting [4]) were 0.05 and 0.13, respectively. Moreover, the “IL1β Production” value in test [1] (Table 12) was 127 pg/mL. Besides, the “IL1β Production (pg/ml)” value in test [1] (Table 12A) is on record as 111* pg/ml. Further, the “Fold increase” value in test [2] (setting [5]) is reported as 3.5; in test [2] (Table 12A) it was 576. Also, the results for the “MCP1” value in test [2] (setting [6]) and in test [2] (setting [7]) were 603.2 pg/mL and 11994 pg/mL, respectively.

`CC[C@H](C)[C@H](NC(=O)[C@H](CCCNC(=N)N)NC(=O)[C@H](Cc1c[nH]c2ccccc12)NC(=O)[C@H](CCCNC(=N)N)NC(=O)[C@@H](NC(=O)[C@H](CC(C)C)NC(=O)[C@H](Cc1c[nH]c2ccccc12)NC(=O)[C@H](CCCNC(=N)N)NC(=O)[C@H](CCC(N)=O)NC(=O)[C@@H](N)CCCCN)[C@@H](C)CC)C(=O)N[C@@H](CCCNC(=N)N)C(=O)N[C@@H](CCCCN)C(N)=O` [Peptide 2010] (H-KQRWLIRWRIRK-NH2; N-terminus assumed): in the test on P. aeruginosa biofilm, the “MBIC50 P. aeruginosa” value amounted to 2.5 µg/mL. The “Fold change in IL1β relative to no peptide LPS stimulated cells” value in test [1] (setting [4]) is on record as 0.42. In addition, in test [1] (Table 12A), the “IL1β Production (pg/ml)” value is 377* pg/ml. In test [2] (Table 12A), the “Fold increase” value is 266. In addition, the “MCP1” value in test [2] (setting [7]) worked out at 5649 pg/mL.

As for “HH2-G9: single substituted HH2 peptide (VQLRIRVAGIRA-NH2)”, in test [1] (Table 12), the “Fold change in IL1β relative to no peptide LPS stimulated cells” value was determined as 1.04 and the “IL1β Production” value was 1363 pg/mL. Besides, the “% Biofilm inhibition” value in test [3] amounted to 59%. Moreover, in test [2] (setting [5]), the “Fold increase” value was determined as 3.0. The “MCP1” value in test [2] (setting [6]) came out at 342 pg/mL.

On to “1002-G11: single substituted 1002 peptide (VQRWLIVWRIGK-NH2) [Peptide 1002-G11]”, for which, in test [1] (Table 12), the “Fold change in IL1β relative to no peptide LPS stimulated cells” value was determined as 0.05 and the “IL1β Production” value was 127 pg/mL. Moreover, in test [3], the “% Biofilm inhibition” value came to 60%. In addition, the “Fold increase” value in test [2] (setting [5]) is 2.9. The “MCP1” value in test [2] (setting [6]) was 465.0 pg/mL.

On to “1018-V3: single substituted 1018 peptide (VRVIVAVRIWRR-NH2) [Peptide 1018-V3]”, for which, in test [1] (Table 12), the “Fold change in IL1β relative to no peptide LPS stimulated cells” value is recorded as 0.22 and the “IL1β Production” value was 295 pg/mL. Besides, the “% Biofilm inhibition” value in test [3] is recorded as 76%. The “Fold increase” value in test [2] (setting [5]) was determined as 16. Also, the “MCP1” value in test [2] (setting [6]) worked out at 2550 pg/mL.

Turning to “1018-I8: single substituted 1018 peptide (VRLIVAVIIWRR-NH2) [Peptide 1018-I8]”, in test [1] (Table 12), the “Fold change in IL1β relative to no peptide LPS stimulated cells” value is listed as 0.86 and the “IL1β Production” value stood at 1125 pg/mL. Moreover, in test [3], the “% Biofilm inhibition” value amounted to 39%. Besides, in test [2] (setting [5]), the “Fold increase” value was determined as 1.0. In test [2] (setting [6]), the “MCP1” value came to 2 pg/mL.

Consider “HH2-K3: single substituted HH2 peptide (VQKRIRVAVIRA-NH2)”, for which, in test [1] (Table 12), the “Fold change in IL1β relative to no peptide LPS stimulated cells” value was 1.34 and the “IL1β Production” value turned out to be 1761 pg/mL. In test [3], the “% Biofilm inhibition” value was found to be 14%. Also, in test [2] (setting [5]), the “Fold increase” value turned out to be 11. Moreover, in test [2] (setting [6]), the “MCP1” value worked out at 1763 pg/mL.
